Assay results as given in ChEMBL document CHEMBL1157939, “Bromophycolides C-I from the Fijian red alga Callophycus serratus” (J Nat Prod, 2006).

How the values were obtained:
[1] = test system: DU-4475; assay: Antineoplastic activity against human DU4475 cells after 72 hrs by MTS reduction assay; format: functional, cell-based; conditions: DU-4475, 72 h
[2] = test system: Candida albicans; assay: Antifungal activity against amphotericin B-resistant Candida albicans after 12 to 15 hrs by alamar blue assay; format: functional, organism-based

| SMILES | IC50 [1] [µM] | IC50 [2] [µM] |
| --- | --- | --- |
| C=C1CC[C@H](Br)[C@@]2(C)CC[C@@H](Br)[C@@](C)(O)CC[C@@H](Br)C(C)(C)OC(=O)c3ccc(O)c(c3)C[C@H]12 [BROMOPHYCOLIDE H] | 3.88 |  |
| C=C1CC[C@H](Br)[C@@]2(C)CC[C@@H](Br)[C@@](C)(O)CC[C@H](O)C(C)(C)OC(=O)c3ccc(O)c(c3)C[C@H]12 [BROMOPHYCOLIDE I] |  | 208 |
| C=C1CC[C@H](Br)[C@@]2(C)CC[C@@H]3O[C@@]3(C)CC[C@@H](C(C)(C)O)OC(=O)c3ccc(O)c(c3)C[C@H]12 [BROMOPHYCOLIDE F] |  | 240 |
